Assay results as given in ChEMBL document CHEMBL1201862, “PubChem BioAssay data set” (2004).
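Cells were grown in 96-well plates and exposed to each compound for 48 hours at five concentrations; endpoints were interpolated linearly between bracketing concentrations, or set to the highest concentration if not reached. GI50 is the concentration that inhibits growth by half.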 Calls of active or inactive are those of the source. Cut-off read from the data, not from the text of the source: active = GI50 up to about 1.1 µM and inactive = higher.

Columns and labels:
Assay in all cases: growth of human tumour cells (NCI), 48 h
[1] = tested on: 786-0
[2] = tested on: A498
[3] = tested on: A549
[4] = tested on: ACHN
[5] = tested on: BT-549
[6] = tested on: CAKI-1
[7] = tested on: CCRF-CEM
[8] = tested on: COLO 205
[9] = tested on: DU-145
[10] = tested on: EKVX
[11] = tested on: HCC 2998
[12] = tested on: HCT-116
[13] = tested on: HCT-15
[14] = tested on: HL-60
[15] = tested on: HOP-62
[16] = tested on: HOP-92
[17] = tested on: HT-29
[18] = tested on: IGROV-1
[19] = tested on: K562
[20] = tested on: KM12
[21] = tested on: LOX IMVI
[22] = tested on: M14
[23] = tested on: MCF7
[24] = tested on: MDA-MB-231
[25] = tested on: MDA-MB-435
[26] = tested on: MDA-N
[27] = tested on: MOLT-4
[28] = tested on: Malme-3M
[29] = tested on: NCI-H226
[30] = tested on: NCI-H23
[31] = tested on: NCI-H460
[32] = tested on: NCI-H522
[33] = tested on: NCI/ADR-RES
[34] = tested on: OVCAR-4
[35] = tested on: OVCAR-5
[36] = tested on: OVCAR-8
[37] = tested on: PC-3
[38] = tested on: RPMI-8226
[39] = tested on: RXF 393
[40] = tested on: SF-268
[41] = tested on: SF-539
[42] = tested on: SK-MEL-28
[43] = tested on: SK-MEL-2
[44] = tested on: SN12C
[45] = tested on: SNB-19
[46] = tested on: SNB-75
[47] = tested on: SR
[48] = tested on: SW-620
[49] = tested on: T47D
[50] = tested on: TK-10
[51] = tested on: U-251
[52] = tested on: UACC-257
[53] = tested on: UACC-62
[54] = tested on: UO-31
[55] = tested on: Hs-578T
[56] = tested on: SK-MEL-5
[57] = tested on: SK-OV-3

In the case of `CCOC(=O)/C=C/c1cccc(F)c1`, the GI50 [1] was > 100 µM (inactive), the GI50 [2] was > 100 µM (inactive) and the GI50 [3] was > 100 µM (inactive). For the same compound, the GI50 [4] was > 100 µM (inactive), the GI50 [5] was > 100 µM (inactive) and the GI50 [6] was > 100 µM (inactive). For the same compound, the GI50 [7] was > 100 µM (inactive), the GI50 [8] was > 100 µM (inactive) and the GI50 [9] was > 100 µM (inactive). The GI50 [10] was > 100 µM (inactive), the GI50 [11] was > 100 µM (inactive) and the GI50 [12] was > 100 µM (inactive). For the same compound, the GI50 [13] was greater than 100 µM, the GI50 [14] was > 100 µM (inactive) and the GI50 [15] was > 100 µM (inactive). The GI50 [16] was > 100 µM (inactive), the GI50 [17] was > 100 µM (inactive) and the GI50 [18] was > 100 µM (inactive). For the same compound, the GI50 [19] was > 100 µM (inactive), the GI50 [20] was > 100 µM (inactive) and the GI50 [21] was > 100 µM (inactive). The GI50 [22] was > 100 µM (inactive), the GI50 [23] was > 100 µM (inactive) and the GI50 [24] was > 100 µM (inactive). For the same compound, the GI50 [25] was > 100 µM (inactive), the GI50 [26] was > 100 µM (inactive) and the GI50 [27] was > 100 µM (inactive). The GI50 [28] was > 100 µM (inactive), the GI50 [29] was > 100 µM (inactive) and the GI50 [30] was > 100 µM (inactive). For the same compound, the GI50 [31] was > 100 µM (inactive), the GI50 [32] was > 100 µM (inactive) and the GI50 [33] was > 100 µM (inactive). The GI50 [34] was > 100 µM (inactive), the GI50 [35] was > 100 µM (inactive) and the GI50 [36] was > 100 µM (inactive). For the same compound, the GI50 [37] was > 100 µM (inactive), the GI50 [38] was > 100 µM (inactive) and the GI50 [39] was > 100 µM (inactive). For the same compound, the GI50 [40] was > 100 µM (inactive), the GI50 [41] was > 100 µM (inactive) and the GI50 [42] was > 100 µM (inactive). The GI50 [43] was > 100 µM (inactive), the GI50 [44] was > 100 µM (inactive) and the GI50 [45] was > 100 µM (inactive). For the same compound, the GI50 [46] was > 100 µM (inactive), the GI50 [47] was > 100 µM (inactive) and the GI50 [48] was > 100 µM (inactive). The GI50 [49] was > 100 µM (inactive), the GI50 [50] was > 100 µM (inactive) and the GI50 [51] was > 100 µM (inactive). The GI50 [52] was > 100 µM (inactive), the GI50 [53] was > 100 µM (inactive) and the GI50 [54] was > 100 µM (inactive).
`CCOC(=O)C(NC(=O)Nc1ccc(Cl)cc1)(OC)C(F)(F)F` (stereo unspecified) was tested, and the GI50 [1] was 13.8 µM (inactive), the GI50 [2] was 14 µM (inactive) and the GI50 [3] was 8.49 µM (inactive). For the same compound, the GI50 [4] was 0.757 µM (active), the GI50 [5] was > 100 µM (inactive) and the GI50 [6] was 74.3 µM (inactive). The GI50 [8] was 12.2 µM (inactive), the GI50 [10] was 56.5 µM (inactive) and the GI50 [11] was 7.45 µM (inactive). The GI50 [12] was 1.94 µM (inactive), the GI50 [13] was 0.248 µM and the GI50 [14] was 9.68 µM (inactive). For the same compound, the GI50 [17] was > 100 µM (inactive), the GI50 [55] was 42.4 µM (inactive) and the GI50 [18] was > 100 µM (inactive). The GI50 [19] was 0.832 µM (active), the GI50 [21] was > 100 µM (inactive) and the GI50 [22] was 8.24 µM (inactive). For the same compound, the GI50 [25] was 3.25 µM (inactive), the GI50 [26] was 3.12 µM (inactive) and the GI50 [30] was 37.9 µM (inactive). The GI50 [33] was 4.66 µM (inactive), the GI50 [35] was 21.5 µM (inactive) and the GI50 [36] was 49.3 µM (inactive). For the same compound, the GI50 [37] was 32.3 µM (inactive), the GI50 [39] was > 100 µM (inactive) and the GI50 [40] was 27.7 µM (inactive). The GI50 [41] was 19.7 µM (inactive), the GI50 [42] was > 100 µM (inactive) and the GI50 [43] was 0.973 µM (active). The GI50 [56] was 15.1 µM (inactive), the GI50 [57] was > 100 µM (inactive) and the GI50 [44] was 41 µM (inactive). For the same compound, the GI50 [45] was 22.2 µM (inactive), the GI50 [46] was > 100 µM (inactive) and the GI50 [47] was 9.23 µM (inactive). For the same compound, the GI50 [48] was 64.4 µM (inactive), the GI50 [49] was 70 µM (inactive) and the GI50 [50] was 30.7 µM (inactive). The GI50 [51] was 52.5 µM (inactive), the GI50 [52] was 21.9 µM (inactive) and the GI50 [54] was 5.75 µM (inactive).
